Assay [1] deals with Venturia inaequalis. Briefly: Activity against apple scab in-vitro (VII). It counts as cell-based. The note with it: 10 ppm, 10 days, 20° C., mycelial growth. The method in brief: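 V. inaequalis propagules (5×10^4/ml, malt agar-grown) were exposed in half-strength PDB to 10 ppm final test compound delivered in acetone. Growth was scored after incubation for 10 days at 20° C, as a rating relative to untreated or diluent-sprayed controls.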

Assay [2] concerns Pyricularia oryzae. It counts as in vivo. The note with it: rice seedlings, direct therapeutic foliar spray, 600 ppm, 4-5 days.
Assay [3] deals with Phytophthora infestans. It counts as in vivo. As to conditions: tomato, direct protectant foliar spray.
Assay [4] has as its system Leptosphaeria nodorum. In words: Activity against wheat leafspot (LN). The note with it: direct therapeutic foliar spray, 600 ppm, 6-8 days. It is filed as in vivo. The method in brief:
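Therapeutic foliar spray: compound at 600 ppm applied to single-leaf wheat (cv Norman) 24 h after inoculation with 1.5×10^6 conidia/ml. Disease control scored after 6-8 days at 22° C and 70% humidity as lesions per leaf versus untreated or diluent-sprayed controls.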

Assay [5] concerns Rhizoctonia solani. In words: Activity against Rhizoctonia in-vitro (RSI). It is filed as cell-based. As to conditions: 10 ppm, 10 days, 20° C., mycelial growth. The essentials:
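Compound at a final 10 ppm (acetone vehicle) in half-strength PDB, inoculated with 5×10^4 fragments/ml of shaken-culture R. solani mycelium. After incubation at 20° C for 10 days, growth scored as a rating versus untreated or diluent-treated controls.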

For assay [6], the system named is Erysiphe graminis f.sp. hordei. Briefly: Direct protectant activity against barley powdery mildew (EGP). It is filed as in vivo. The note with it: direct protectant foliar spray, 8 days. The essentials: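 Rating reflects percentage of leaf area with sporulation compared with untreated or diluent-sprayed controls. Protectant spray was applied to single-leaf barley (cv Golden Promise) 24 h before conidia inoculation. Plants were kept at 18 °C and 40% RH throughout, with 8 days of disease development.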

Assay [7] has as its system Alternaria solani. Briefly: Activity against tomato early blight (AS). It is filed as in vivo. As to conditions: Table VI; tomato seedlings, contact prophylactic foliar spray, 4 days. The essentials: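 Plants were challenged with A. solani conidia (10^4 spores/ml) 24 h after a protective foliar spray of compound in 50:50 acetone/water plus 0.04% Tween 20. Held humid at 21° C for 4 days, then percent leaf area with lesions was scored as a rating relative to controls.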

The test system of assay [8] is Plasmopara viticola. Briefly: Antisporulant activity against vine downy mildew (PVA). It is filed as in vivo. The note with it: vine leaves, antisporulant foliar spray, 600 ppm, 750 l/ha. The method in brief: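 Cabernet Sauvignon vines (~8 cm) inoculated on lower leaf surfaces with 5×10^4 zoosporangia/ml, held 24 h at 21° C high humidity then 24 h glasshouse. Infected leaves sprayed underside with 600 ppm compound in 1:1 water/acetone, 0.04% Tween 20, 750 l/ha; 96 h glasshouse, 24 h humidity. Sporulating leaf area rated versus control.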

The subject of assay [9] is Erysiphe graminis f.sp. hordei. In words: Activity against barley powdery mildew, direct therapeutic (EGT). It is filed as in vivo. As to conditions: direct therapeutic foliar spray, 600 ppm, up to 7 days. The essentials: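 A curative spray at 600 ppm was applied to single-leaf Golden Promise barley inoculated with powdery mildew conidia the previous day. After up to 7 days at 18 °C and 40% humidity, disease control was rated from percent leaf area sporulating relative to untreated or diluent-sprayed controls.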

Assay [10] relates to Botrytis cinerea. In words: Direct protectant activity against broad bean grey mould (BCB). It is filed as in vivo. As to conditions: direct protectant foliar spray, 600 ppm, 4 days. The method in brief: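 Protectant foliar test: lesion coverage assessed 4 days after inoculation and rated relative to untreated or diluent-sprayed plants. Compound applied at 600 ppm to cv The Sutton leaves 24 h before 10^6 conidia/ml suspension; incubation at 22 °C in high humidity.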

Assay [11] has as its system Pseudocercosporella herpotrichoides. Briefly: Activity against wheat eyespot in-vitro (PHI). It is filed as cell-based. As to conditions: 10 ppm, 10 days, 20° C., mycelial growth. The essentials: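 Mycelial growth was scored after 10 days at 20 °C against untreated or diluent controls. The broth was half-strength potato dextrose, holding 10 ppm test compound (from acetone) and 5×10^4 fragments/ml of the eyespot fungus.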

Consider 8 molecules from patent publication US5591741A, “Fungicidal spiroheterocyclic derivatives” (American Cyanamid Company, priority 1993, dated 1997).

With `CCN(CC(C)(C)C)C1COC2(CCC(C(C)(C)C)CC2)C1` (stereo not shown) [Compound 132], in assay [1], the “disease control rating VII” value is listed as 1 (about 50-80% disease control). Moreover, the “disease control rating PO” value in [2] is 0 (less than 50% disease control). The “disease control rating PIP” value in assay [3] is given as 0 (less than 50% disease control). For the same molecule, the “disease control rating LN” value in [4] is listed as 0 (less than 50% disease control). In addition, the “disease control rating RSI” value in assay [5] is given as 0 (less than 50% disease control). The “disease control rating EGP” value in assay [6] is on record as 2 (greater than 80% disease control). For the same molecule, the “disease control rating AS” value in [7] was 0 (less than 50% disease control). For the same molecule, the “disease control rating PVA” value in assay [8] was 0 (less than 50% disease control). In [9], the “disease control rating EGT” value was 2 (greater than 80% disease control). In addition, in assay [10], the “disease control rating BCB” value was 0 (less than 50% disease control). Also, the “disease control rating PHI” value in [11] is recorded as 0 (less than 50% disease control).

Consider `CCCN(CC(C)(C)C)C1COC2(CCC(C(C)(C)C)CC2)C1` (stereo not shown) [Compound 133], for which the “disease control rating VII” value in assay [1] is recorded as 1 (about 50-80% disease control). For the same molecule, the “disease control rating PO” value in assay [2] is 0 (less than 50% disease control). Moreover, in assay [3], the “disease control rating PIP” value is 0 (less than 50% disease control). Also, the “disease control rating LN” value in assay [4] was 0 (less than 50% disease control). The “disease control rating RSI” value in assay [5] was 0 (less than 50% disease control). The “disease control rating EGP” value in [6] is recorded as 2 (greater than 80% disease control). Further, the “disease control rating AS” value in assay [7] was 0 (less than 50% disease control). Moreover, the “disease control rating PVA” value in [8] is reported as 0 (less than 50% disease control). The “disease control rating EGT” value in [9] was 2 (greater than 80% disease control). Besides, the “disease control rating BCB” value in assay [10] is 0 (less than 50% disease control). In addition, in [11], the “disease control rating PHI” value is 0 (less than 50% disease control).

Regarding `CC(C)(C)CNC1COC2(CCC(C(C)(C)C)CC2)C1` (stereo not shown) [Compound 134], the “disease control rating VII” value in assay [1] is given as 0 (less than 50% disease control). In addition, the “disease control rating PO” value in [2] was 0 (less than 50% disease control). Moreover, in assay [3], the “disease control rating PIP” value is on record as 0 (less than 50% disease control). For the same molecule, the “disease control rating LN” value in assay [4] is on record as 0 (less than 50% disease control). Besides, the “disease control rating RSI” value in assay [5] was 0 (less than 50% disease control). Further, the “disease control rating EGP” value in assay [6] was 2 (greater than 80% disease control). The “disease control rating AS” value in [7] is 0 (less than 50% disease control). In addition, in assay [8], the “disease control rating PVA” value is listed as 0 (less than 50% disease control). Further, in assay [9], the “disease control rating EGT” value is 2 (greater than 80% disease control). The “disease control rating BCB” value in assay [10] is reported as 0 (less than 50% disease control). Moreover, the “disease control rating PHI” value in [11] is reported as 0 (less than 50% disease control).

On to `CC(C)CNC1COC2(CCC(C(C)(C)CC(C)(C)C)CC2)C1` (stereo not shown) [Compound 137], for which the “disease control rating VII” value in [1] is 1 (about 50-80% disease control). Moreover, the “disease control rating PO” value in assay [2] was 0 (less than 50% disease control). Further, the “disease control rating PIP” value in assay [3] is recorded as 0 (less than 50% disease control). Further, in [4], the “disease control rating LN” value is on record as 2 (greater than 80% disease control). Moreover, the “disease control rating RSI” value in assay [5] was 2 (greater than 80% disease control). For the same molecule, the “disease control rating EGP” value in [6] is reported as 2 (greater than 80% disease control). The “disease control rating AS” value in [7] was 0 (less than 50% disease control). Also, the “disease control rating PVA” value in assay [8] is recorded as 0 (less than 50% disease control). Besides, the “disease control rating EGT” value in assay [9] is 2 (greater than 80% disease control). The “disease control rating BCB” value in assay [10] was 0 (less than 50% disease control). Further, the “disease control rating PHI” value in [11] is given as 2 (greater than 80% disease control).

For `CC(C)(C)C1CCC2(CC1)CC(NC1CCC3CCCCC3C1)CO2` (stereo not shown) [Compound 138], the “disease control rating VII” value in [1] is listed as 0 (less than 50% disease control). Further, the “disease control rating PO” value in assay [2] is listed as 0 (less than 50% disease control). The “disease control rating PIP” value in [3] is listed as 2 (greater than 80% disease control). The “disease control rating LN” value in [4] is given as 0 (less than 50% disease control). Also, the “disease control rating RSI” value in assay [5] is on record as 0 (less than 50% disease control). In addition, the “disease control rating EGP” value in assay [6] is 0 (less than 50% disease control). Moreover, the “disease control rating AS” value in assay [7] is reported as 0 (less than 50% disease control). The “disease control rating PVA” value in assay [8] is 0 (less than 50% disease control). The “disease control rating EGT” value in assay [9] is 0 (less than 50% disease control). Further, the “disease control rating BCB” value in assay [10] is reported as 0 (less than 50% disease control). In addition, in assay [11], the “disease control rating PHI” value is 0 (less than 50% disease control).

Regarding `CC(C)CNC1COC2(CCC(C(C)(C)C3CCCCC3)CC2)C1` (stereo not shown) [Compound 139], the “disease control rating VII” value in assay [1] was 2 (greater than 80% disease control). In addition, the “disease control rating PO” value in assay [2] was 0 (less than 50% disease control). For the same molecule, the “disease control rating PIP” value in assay [3] is recorded as 0 (less than 50% disease control). Moreover, in assay [4], the “disease control rating LN” value is recorded as 1 (about 50-80% disease control). Moreover, the “disease control rating RSI” value in assay [5] is on record as 0 (less than 50% disease control). Besides, the “disease control rating EGP” value in assay [6] is 2 (greater than 80% disease control). Besides, the “disease control rating AS” value in assay [7] is 0 (less than 50% disease control). In addition, in assay [8], the “disease control rating PVA” value is listed as 0 (less than 50% disease control). Further, the “disease control rating EGT” value in [9] was 2 (greater than 80% disease control). Moreover, the “disease control rating BCB” value in assay [10] was 0 (less than 50% disease control). Besides, the “disease control rating PHI” value in [11] is recorded as 2 (greater than 80% disease control).

For the molecule `CCCCCCN(C)C1COC2(CCC(C(C)(C)C3CCCCC3)CC2)C1` (stereo not shown) [Compound 140], in [1], the “disease control rating VII” value was 2 (greater than 80% disease control). In addition, in assay [2], the “disease control rating PO” value is 0 (less than 50% disease control). For the same molecule, the “disease control rating PIP” value in assay [3] is given as 0 (less than 50% disease control). In assay [4], the “disease control rating LN” value is given as 1 (about 50-80% disease control). In addition, the “disease control rating RSI” value in assay [5] is listed as 2 (greater than 80% disease control). Besides, the “disease control rating EGP” value in assay [6] is on record as 2 (greater than 80% disease control). Moreover, in assay [7], the “disease control rating AS” value is 0 (less than 50% disease control). Further, the “disease control rating PVA” value in [8] was 0 (less than 50% disease control). Also, in [9], the “disease control rating EGT” value is recorded as 2 (greater than 80% disease control). Also, the “disease control rating BCB” value in [10] is 0 (less than 50% disease control). In addition, the “disease control rating PHI” value in [11] was 2 (greater than 80% disease control).

`CC1CCN(C2COC3(CCC(C(C)(C)C4CCCCC4)CC3)C2)CC1` (stereo not shown) [Compound 141]: the “disease control rating VII” value in assay [1] is 2 (greater than 80% disease control). Moreover, the “disease control rating PO” value in [2] is 0 (less than 50% disease control). The “disease control rating PIP” value in assay [3] is given as 0 (less than 50% disease control). In addition, in assay [4], the “disease control rating LN” value was 1 (about 50-80% disease control). Moreover, the “disease control rating RSI” value in [5] was 2 (greater than 80% disease control). In addition, the “disease control rating EGP” value in assay [6] is given as 2 (greater than 80% disease control). In [7], the “disease control rating AS” value is listed as 0 (less than 50% disease control). Moreover, the “disease control rating PVA” value in [8] is recorded as 0 (less than 50% disease control). The “disease control rating EGT” value in [9] was 2 (greater than 80% disease control). Besides, in [10], the “disease control rating BCB” value is 0 (less than 50% disease control). For the same molecule, the “disease control rating PHI” value in assay [11] was 2 (greater than 80% disease control).
